Source: patent publication US10670605B2, “Cysteine reactive probes and uses thereof” (The Scripps Research Institute, priority 2015, dated 2020)

Tests used:
Assay in all cases: Competitive isoTOP-ABPP, cell lysates;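 as to isoTOP-ABPP reactivity profile ratio, P63244 C182: Heavy/light ratio DMSO over fragment-treated so higher means more cysteine engagement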;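 as to isoTOP-ABPP reactivity profile ratio, P68036 C86: Heavy/light ratio DMSO over fragment-treated so higher means more cysteine engagement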
Format in all cases: binding
UBE2L3 C86 (P68036) = UBE2L3 C86 (P68036) (Homo sapiens, UniProt P68036);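 as to isoTOP-ABPP reactivity profile ratio, P68036 C86: Heavy/light ratio DMSO over fragment-treated so higher means more cysteine engagement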
ADA C75 (P00813) = biological target: T1, ADA C75 (P00813) (Homo sapiens, UniProt P00813); conditions: for isoTOP-ABPP ratio (reactivity profile), P00813_C75: 500 μm in-vitro ramos
T1 sequence (P00813 1-363): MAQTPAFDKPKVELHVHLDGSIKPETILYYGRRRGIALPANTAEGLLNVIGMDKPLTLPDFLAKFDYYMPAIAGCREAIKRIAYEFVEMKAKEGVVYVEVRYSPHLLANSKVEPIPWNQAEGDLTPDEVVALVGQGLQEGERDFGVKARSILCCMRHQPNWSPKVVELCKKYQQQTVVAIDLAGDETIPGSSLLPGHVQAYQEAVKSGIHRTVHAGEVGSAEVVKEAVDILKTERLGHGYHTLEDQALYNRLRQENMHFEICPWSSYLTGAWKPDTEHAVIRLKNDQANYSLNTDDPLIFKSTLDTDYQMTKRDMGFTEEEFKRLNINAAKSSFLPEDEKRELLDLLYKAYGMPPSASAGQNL

SAMHD1 C522 (Q9Y3Z3) = SAMHD1 C522 (Q9Y3Z3) (Homo sapiens, UniProt Q9Y3Z3)
PDIA6 C55 (Q15084) = biological target: T2, PDIA6 C55 (Q15084) (Homo sapiens, UniProt Q15084); conditions: for isoTOP-ABPP reactivity profile ratio, Q15084_C55 / isoTOP-ABPP reactivity ratio, Q15084_C55: 500 μm
T2 sequence (Q15084 20-440): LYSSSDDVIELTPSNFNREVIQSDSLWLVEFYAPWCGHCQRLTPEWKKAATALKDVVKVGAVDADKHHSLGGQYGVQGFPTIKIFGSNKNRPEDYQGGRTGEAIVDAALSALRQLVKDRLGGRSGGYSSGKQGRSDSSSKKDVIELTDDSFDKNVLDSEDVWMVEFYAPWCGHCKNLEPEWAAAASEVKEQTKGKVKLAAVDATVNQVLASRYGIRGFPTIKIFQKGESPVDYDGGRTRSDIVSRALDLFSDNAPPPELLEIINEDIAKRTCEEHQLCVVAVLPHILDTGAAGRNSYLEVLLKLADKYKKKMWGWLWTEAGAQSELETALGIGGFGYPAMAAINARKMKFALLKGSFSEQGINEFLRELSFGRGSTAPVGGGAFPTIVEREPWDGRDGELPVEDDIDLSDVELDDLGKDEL

GNB2L1 C182 (P63244) = GNB2L1 C182 (P63244) (Homo sapiens, UniProt P63244); conditions: for isoTOP-ABPP ratio (reactivity profile), P63244_C182: 500 μm in-vitro ramos_231; for isoTOP-ABPP reactivity profile ratio, P63244_C182 / isoTOP-ABPP reactivity ratio, P63244_C182: 500 μm;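 as to isoTOP-ABPP reactivity profile ratio, P63244 C182: Heavy/light ratio DMSO over fragment-treated so higher means more cysteine engagement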
XPO1 C528 (O14980) = XPO1 C528 (O14980) (Homo sapiens, UniProt O14980); conditions: for isoTOP-ABPP reactivity ratio, O14980_C528 / isoTOP-ABPP reactivity profile ratio, O14980_C528: 500 μm
PDE12 C108 (Q6L8Q7) = biological target: T3, PDE12 C108 (Q6L8Q7) (Homo sapiens, UniProt Q6L8Q7); conditions: for isoTOP-ABPP ratio (reactivity profile), Q6L8Q7_C108: 500 μm in-vitro ramos_231
T3 sequence (Q6L8Q7 43-609): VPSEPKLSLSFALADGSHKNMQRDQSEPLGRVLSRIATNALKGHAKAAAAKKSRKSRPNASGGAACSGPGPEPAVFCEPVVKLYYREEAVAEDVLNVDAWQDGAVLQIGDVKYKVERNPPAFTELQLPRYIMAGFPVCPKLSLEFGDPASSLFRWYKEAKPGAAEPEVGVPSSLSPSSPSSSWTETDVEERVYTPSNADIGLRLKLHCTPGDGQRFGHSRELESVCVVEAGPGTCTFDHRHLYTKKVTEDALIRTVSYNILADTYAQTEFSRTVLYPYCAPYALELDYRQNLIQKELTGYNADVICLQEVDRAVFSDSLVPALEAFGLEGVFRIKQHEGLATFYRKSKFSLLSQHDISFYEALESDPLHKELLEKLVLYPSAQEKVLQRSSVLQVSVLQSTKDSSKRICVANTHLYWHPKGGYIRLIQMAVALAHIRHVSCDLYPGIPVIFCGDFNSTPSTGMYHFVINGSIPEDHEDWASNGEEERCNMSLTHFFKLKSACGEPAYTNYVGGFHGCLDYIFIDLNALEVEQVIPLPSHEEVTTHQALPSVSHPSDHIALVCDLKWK

O=C(CCl)N1CCOCC1 [compound 22]
isoTOP-ABPP ratio (reactivity profile), P68036_C86 (UBE2L3 C86 (P68036); 500 μm in-vitro ramos): 0.8 | isoTOP-ABPP ratio (reactivity profile), P00813_C75 (ADA C75 (P00813)): 1.3 | isoTOP-ABPP ratio (reactivity profile), Q9Y3Z3_C522 (SAMHD1 C522 (Q9Y3Z3); 500 μm in-vitro ramos): 0.8 | isoTOP-ABPP ratio (reactivity profile), Q15084_C55 (PDIA6 C55 (Q15084); 500 μm in-vitro ramos): 1.6 | isoTOP-ABPP ratio (reactivity profile), Q15084_C55 (PDIA6 C55 (Q15084); 500 μm in-vitro ramos_231): 2.1 | isoTOP-ABPP ratio (reactivity profile), P63244_C182 (GNB2L1 C182 (P63244)): 1.6

N#CC(=Cc1ccc(-c2ccccc2Cl)o1)C(N)=O [compound 42]
isoTOP-ABPP reactivity profile ratio, P68036_C86 (UBE2L3 C86 (P68036); 500 μm, in-vitro_ramos): 0.8 | isoTOP-ABPP reactivity profile ratio, P00813_C75 (ADA C75 (P00813); 500 μm, in-vitro_ramos): 0.8 | isoTOP-ABPP reactivity profile ratio, Q15084_C55 (PDIA6 C55 (Q15084); in-vitro_ramos): 0.9 | isoTOP-ABPP reactivity profile ratio, P63244_C182 (GNB2L1 C182 (P63244); in-vitro_ramos): 0.8

C=CC(=O)N1CCC(c2noc3ccc(F)cc23)CC1 [compound 37]
isoTOP-ABPP reactivity ratio, P00813_C75 (ADA C75 (P00813); 500 μm, in-vitro_ramos): 0.9 | isoTOP-ABPP reactivity ratio, Q9Y3Z3_C522 (SAMHD1 C522 (Q9Y3Z3); 500 μm, in-vitro_ramos): 0.7 | isoTOP-ABPP reactivity ratio, Q15084_C55 (PDIA6 C55 (Q15084); in-vitro_ramos): 1.0 | isoTOP-ABPP reactivity ratio, O14980_C528 (XPO1 C528 (O14980); in-vitro_ramos): 0.9 | isoTOP-ABPP reactivity ratio, P63244_C182 (GNB2L1 C182 (P63244); in-vitro_ramos): 0.9

N#C/C(=C\c1cc(C(F)(F)F)cc(C(F)(F)F)c1)C(N)=O [compound 23]
isoTOP-ABPP ratio (reactivity profile), Q6L8Q7_C108 (PDE12 C108 (Q6L8Q7)): 1.0 | isoTOP-ABPP ratio (reactivity profile), P68036_C86 (UBE2L3 C86 (P68036); 500 μm in-vitro ramos): 13.2 | isoTOP-ABPP ratio (reactivity profile), P68036_C86 (UBE2L3 C86 (P68036); 500 μm in-vitro ramos_231): 7.4 | isoTOP-ABPP ratio (reactivity profile), P00813_C75 (ADA C75 (P00813)): 1.1 | isoTOP-ABPP ratio (reactivity profile), Q15084_C55 (PDIA6 C55 (Q15084); 500 μm in-vitro ramos): 1.0 | isoTOP-ABPP ratio (reactivity profile), Q15084_C55 (PDIA6 C55 (Q15084); 500 μm in-vitro ramos_231): 0.8 | isoTOP-ABPP ratio (reactivity profile), O14980_C528 (XPO1 C528 (O14980); 500 μm in-vitro ramos): 2.9 | isoTOP-ABPP ratio (reactivity profile), P63244_C182 (GNB2L1 C182 (P63244)): 4.6

CNS(=O)(=O)C=Cc1ccc2c(ccn2Cc2ccccc2)c1 [compound 6]
isoTOP-ABPP ratio, P68036_C86 (UBE2L3 C86 (P68036); 500 μM, invitro, 231): 1.8 | isoTOP-ABPP ratio Q15084_C55 (PDIA6 C55 (Q15084); 500 μM, invitro, 231): 1.0 | isoTOP-ABPP ratio O14980_C528 (XPO1 C528 (O14980); 500 μM, invitro, 231): 0.7 | isoTOP-ABPP ratio, P63244_C182 (GNB2L1 C182 (P63244); 500 μM, invitro, 231): 1.5

C=CC(=O)N1CCC(Cc2ccccc2)CC1 [compound 53]
isoTOP-ABPP reactivity profile ratio, Q6L8Q7_C108 (PDE12 C108 (Q6L8Q7); 500 μm, in-vitro_ramos): 1.1 | isoTOP-ABPP reactivity profile ratio, P68036_C86 (UBE2L3 C86 (P68036); 500 μm, in-vitro_ramos): 1.0 | isoTOP-ABPP reactivity profile ratio, P68036_C86 (UBE2L3 C86 (P68036); 500 μm, in-vitro_ramos_231): 1.0 | isoTOP-ABPP reactivity profile ratio, Q9Y3Z3_C522 (SAMHD1 C522 (Q9Y3Z3); 500 μm, in-vitro_ramos): 0.7 | isoTOP-ABPP reactivity profile ratio, Q15084_C55 (PDIA6 C55 (Q15084); in-vitro_ramos): 1.0 | isoTOP-ABPP reactivity profile ratio, Q15084_C55 (PDIA6 C55 (Q15084); in-vitro_ramos_231): 0.9 | isoTOP-ABPP reactivity profile ratio, O14980_C528 (XPO1 C528 (O14980); in-vitro_ramos): 0.8 | isoTOP-ABPP reactivity profile ratio, P63244_C182 (GNB2L1 C182 (P63244); in-vitro_ramos): 0.8 | isoTOP-ABPP reactivity profile ratio, P63244_C182 (GNB2L1 C182 (P63244); in-vitro_ramos_231): 0.9

O=C(CCl)N(Cc1ccc(F)cc1)C12CC3CC(CC(C3)C1)C2 [compound 34]
isoTOP-ABPP reactivity ratio, P00813_C75 (ADA C75 (P00813); 500 μm, in-vitro_ramos): 1.1 | isoTOP-ABPP reactivity ratio, Q15084_C55 (PDIA6 C55 (Q15084); in-vitro_ramos_231): 0.9 | isoTOP-ABPP reactivity ratio, O14980_C528 (XPO1 C528 (O14980); in-vitro_ramos): 1.1

C=CC(=O)Nc1cc(F)c(N2CCN(C(=O)OC(C)(C)C)CC2)c(F)c1 [compound 38]
isoTOP-ABPP reactivity ratio, Q6L8Q7_C108 (PDE12 C108 (Q6L8Q7); 500 μm, in-vitro_ramos): 6.8 | isoTOP-ABPP reactivity ratio, Q6L8Q7_C108 (PDE12 C108 (Q6L8Q7); 500 μm, in-vitro_ramos_231): 0.9 | isoTOP-ABPP reactivity ratio, P68036_C86 (UBE2L3 C86 (P68036); 500 μm, in-vitro_ramos): 1.5 | isoTOP-ABPP reactivity ratio, P00813_C75 (ADA C75 (P00813); 500 μm, in-vitro_ramos): 2.3 | isoTOP-ABPP reactivity ratio, Q15084_C55 (PDIA6 C55 (Q15084); in-vitro_ramos): 1.3 | isoTOP-ABPP reactivity ratio, Q15084_C55 (PDIA6 C55 (Q15084); in-vitro_ramos_231): 1.0 | isoTOP-ABPP reactivity ratio, O14980_C528 (XPO1 C528 (O14980); in-vitro_ramos_231): 1.0 | isoTOP-ABPP reactivity ratio, P63244_C182 (GNB2L1 C182 (P63244); in-vitro_ramos_231): 1.1

C=CC(=O)N(c1ccccc1)C1CCCCC1 [compound 46]
isoTOP-ABPP reactivity profile ratio, P68036_C86 (UBE2L3 C86 (P68036); 500 μm, in-vitro_ramos_231): 1.2 | isoTOP-ABPP reactivity profile ratio, Q15084_C55 (PDIA6 C55 (Q15084); in-vitro_ramos_231): 0.8 | isoTOP-ABPP reactivity profile ratio, O14980_C528 (XPO1 C528 (O14980); in-vitro_ramos_231): 0.7 | isoTOP-ABPP reactivity profile ratio, P63244_C182 (GNB2L1 C182 (P63244); in-vitro_ramos_231): 0.8

CC(Cl)C(=O)Nc1cc(C(F)(F)F)cc(C(F)(F)F)c1 (stereo not shown) [compound 25]
isoTOP-ABPP ratio (reactivity profile), Q6L8Q7_C108 (PDE12 C108 (Q6L8Q7)): 0.8 | isoTOP-ABPP ratio (reactivity profile), P68036_C86 (UBE2L3 C86 (P68036); 500 μm in-vitro ramos_231): 1.5 | isoTOP-ABPP ratio (reactivity profile), Q15084_C55 (PDIA6 C55 (Q15084); 500 μm in-vitro ramos_231): 1.0 | isoTOP-ABPP ratio (reactivity profile), P63244_C182 (GNB2L1 C182 (P63244)): 1.2
